Test results reported in patent US11084830B2, “Five-membered non aromatic ring-pyrimidine HIV-1 reverse transcriptase inhibitor, preparation method therefor, and uses thereof” (priority 2018, dated 2021).
Like-named read-outs stand apart in the source and are kept apart here.

Tests used:
WT HIV-1 strain (IIIB) = experiment: Anti-HIV-1 activity in MT-4 cells, MTT method, wild-type strain IIIB; format: cell-based; conditions: for SI IIIB: selectivity index, ratio of CC50/EC50, strain IIIB; for EC50: Human immunodeficiency virus 1, IIIB, MT4, read-out: EC50 IIIB
Method: (§1) Antiviral potency was evaluated in MT-4 cell cultures infected with WT HIV-1 strain (IllB) as well as cells infected with a panel of NNRTI-resistant double-mutant strain K103N+Y181C (RES056).
(§2) Selected compounds were screened for inhibitory activity against HIV-1 using MTT method as describe previously by Christophe. Pannecouque et al. Nat. Protoc. […] And in vitro anti-HIV activity of compounds were supported by Rega Institute for Medical Research. The MTT assay is based on the reduction of the yellow colored 3-(4,5-dimethylthiazol-2-yl)-2,5-diphenyltetrazolium bromide (MTT) by mitochondrial dehydrogenases of metabolically active cells to a blue formazan which can be measured spectrophotometrically. Tested optical density served as an indicator for live cells, and survival rate can be concluded by testing the optical density of 540 nm and 690 nm. MT-4 cells infected with HIV-1 can only survive for 5 to 7 days without any treatment, but when HIV-1 inhibitors were added, they can protect MT-4 cell from cytopathic. Serial solution of compounds was added to MT-4 cells after infected with HIV-1, MTT method was used to detect the survival rate after culture for 5 to 7 days.
(§3) (1) MT-4 cells infected with HIV-1 viral strains (IIIB, Y181C/K103N) were provided by Rega Institute for Medical Research, Katholieke Universiteit Leuven, Belgium.
(§4) (3) Preparation of compounds: Stock solutions (10×final concentration) of test compounds is diluted with double distilled H2O for 5 folds and 5 concentrations of one compound are prepared.
(§5) (5) Test method (MTT method): Serial five-fold dilutions of test compounds were added to cultured MT-4 cells infected with HIV-1, after 5 to 7 days, MTT was added and cultured for a few hours.
(§6) The MTT method was described briefly as follows: stock solutions (10×final concentration) of test compounds were added in 25 μL volumes to two series of triplicate wells in order to allow simultaneous evaluation of the effects on mock- and HIV-infected cells. Using a Biomek 3000 robot (Beckman Instruments, Fullerton, Calif.), serial five-fold dilutions of the test compounds (final 200 μL volume per well) were made directly in flat-bottomed 96-well microtiter trays, including untreated control HIV-1 and mock-infected cell samples for each sample. […] Mock-infected cells were used to evaluate the effect of test compounds on uninfected cells to assess cytotoxicity. Exponentially growing MT-4 cells were centrifuged for 5 min at 1000 rpm and the supernatant was discarded. […] At five days after infection, the viability of mock- and HIV-infected cells was determined spectrophotometrically by means of MTT assay.
(§7) The MTT assay is based on the reduction of yellow-colored MTT (Acros Organics, Geel, Belgium) by mitochondrial dehydrogenase of metabolically active cells to form a blue-purple formazan that can be measured spectrophotometrically. The absorbances were read in an eight-channel computer-controlled photometer, at the wavelengths of 540 and 690 nm. All data were calculated using the median optical density (OD) value of three wells.

[1] = system: NNRTI-resistant double-mutant strain K103N+Y181C (RES056); experiment: microbe, parasite or virus in culture; format: cell-based, HIV-1; conditions: for EC50: Human immunodeficiency virus 1, MT4, read-out: EC50 RES056; for SI RES056: selectivity index, ratio of CC50/EC50, strain RES056
Method: as §1, §2, §3, §4, §5, §6, §7

[2] = Cytotoxicity in mock-infected MT-4 cells, MTT method; format: cell-based; conditions: human
Method: (§8) The MTT method was described briefly as follows: stock solutions (10×final concentration) of test compounds were added in 25 μL volumes to two series of triplicate wells in order to allow simultaneous evaluation of the effects on mock- and HIV-infected cells. Using a Biomek 3000 robot (Beckman Instruments, Fullerton, Calif.), serial five-fold dilutions of the test compounds (final 200 μL volume per well) were made directly in flat-bottomed 96-well microtiter trays, including untreated control HIV-1 and mock-infected cell samples for each sample. HIV-1 (IIIB) and mutant HIV-1 strains stock (50 μL at 100-300 CCID50) or culture medium was added to either the infected or mock-infected wells of the microtiter tray. Mock-infected cells were used to evaluate the effect of test compounds on uninfected cells to assess cytotoxicity. Exponentially growing MT-4 cells were centrifuged for 5 min at 1000 rpm and the supernatant was discarded. The MT-4 cells were resuspended at 6×10^5 cells/mL, and 50 μL aliquots were transferred to the microtiter tray wells. At five days after infection, the viability of mock- and HIV-infected cells was determined spectrophotometrically by means of MTT assay.
as §7

mock-infected MT-4 cells = experiment: as above; format: cell-based; conditions: human, 5 days
Method: as §8, §7

[3] = concentration reducing viability of mock-infected MT-4 cell cultures by 50%, MTT method, read-out: CC50

| SMILES | SI IIIB (WT HIV-1 strain (IIIB)) | EC50 [1] [nM] | SI RES056 [1] | CC50 at 5 days ([2]; CC50) [µM] | CC50 (mock-infected MT-4 cells) [µM] | EC50 (WT HIV-1 strain (IIIB)) [nM] | CC50 at 5 days [2, 3] [µM] | CC50 at 5 days ([2]; mock-infected MT-4 cells, concentration reducing viability of mock-infected MT-4 cell cultures by 50%, MTT method, read-out: CC50) [µM] |
| --- | --- | --- | --- | --- | --- | --- | --- | --- |
| Cc1cc(C#N)cc(C)c1Oc1nc(NC2CCN(Cc3ccc([N+](=O)[O-])cc3)CC2)nc2c1COC2 [Compound B5, 3,5-dimethyl-4-((2-((1-(4-nitrobenzyl)piperidin-4-yl)amino)-5,7-dihydrofuro[3,4-d]pyrimidin-4-yl)oxy)benzonitrile] | ≥1497 | 511 ± 165 | ≥22 | ≥ 11.1 |  |  |  |  |
| Cc1cc(C#N)cc(C)c1Oc1nc(NC2CCN(Cc3ccc(S(C)(=O)=O)cc3)CC2)nc2c1CSC2 [Compound D2, 3,5-dimethyl-4-((2-((1-(4-(methylsulfonyl)benzyl)piperidin-4-yl)amino)-5,7-dihydrothieno[3,4-d]pyrimidin-4-yl)oxy)benzonitrile] | 11690 | 170 ± 32 | 266 |  | 45.3 ± 31.1 |  |  |  |
| Cc1cc(C#N)cc(C)c1Oc1nc(NC2CCN(Cc3cccc(C(N)=O)c3)CC2)nc2c1SCC2 [Compound A6, 3-((4-((4-(4-cyano-2,6-dimethylphenoxy)-6,7-dihydrothieno[3,2-d]pyrimidin-2-yl)amino)piperidin-1-yl)methyl)benzamide] | ≥8048 | 629 | ≥355 | ≥ 223 |  |  |  |  |
| Cc1cc(C#N)cc(C)c1Oc1nc(NC2CCN(Cc3ccncc3)CC2)nc2c1COC2 [Compound B4, 3,5-dimethyl-4-((2-((1-(pyridin-4-ylmethyl)piperidin-4-yl)amino)-5,7-dihydrofuro[3,4-d]pyrimidin-4-yl)oxy)benzonitrile] | 11414 | 43.1 ± 1.2 | 753 | 32.5 ± 10 |  | 2.8 |  |  |
| Cc1cc(C#N)cc(C)c1Oc1nc(NC2CCN(Cc3ccc(C(N)=O)cc3)CC2)nc2c1CCC2 [Compound C2, 4-((4-((4-(4-cyano-2,6-dimethylphenoxy)-6,7-dihydro-5H-cyclopenta[d]pyrimidin-2-yl)amino)piperidin-1-yl)methyl)benzamide] | >40984 | 173 ± 110 | >1448 | > 251 |  |  |  |  |
| Cc1cc(C#N)cc(C)c1Oc1nc(NC2CCN(Cc3ccc(C(N)=O)cc3)CC2)nc2c1SCC2 [Compound A2, 4-((4-((4-(4-cyano-2,6-dimethylphenoxy)-6,7-dihydrothieno[3,2-d]pyrimidin-2-yl)amino)piperidin-1-yl)methyl)benzamide] | 34162 | 43.6 ± 5 | 3804 |  | 165 ± 36.9 |  |  |  |
| Cc1cc(C#N)cc(C)c1Oc1nc(NC2CCN(Cc3cccc(C(N)=O)c3)CC2)nc2c1CCC2 [Compound C6, 3-((4-((4-(4-cyano-2,6-dimethylphenoxy)-6,7-dihydro-5H-cyclopenta[d]pyrimidin-2-yl)amino)piperidin-1-yl)methyl)benzamide] | 599 | 941 ± 368 | 9 | 8.73 ± 3.53 |  | 14.5 ± 3.6 |  |  |
| Cc1cc(C#N)cc(C)c1Oc1nc(NC2CCN(Cc3ccc(S(C)(=O)=O)cc3)CC2)nc2c1CCC2 [Compound C3, 3,5-dimethyl-4-((2-((1-(4-(methylsulfonyl)benzyl)piperidin-4-yl)amino)-6,7-dihydro-5H-cyclopenta[d]pyrimidin-4-yl)oxy)benzonitrile] |  | 54.7 ± 6.22 | >5020 | > 274 |  | 1.8 ± 0.7 | > 200 |  |
| Cc1cc(C#N)cc(C)c1Oc1nc(NC2CCN(Cc3ccc(S(C)(=O)=O)cc3)CC2)nc2c1SCC2 [Compound A3, 3,5-dimethyl-4-((2-((1-(4-(methylsulfonyl)benzyl)piperidin-4-yl)amino)-6,7-dihydrothieno[3,2-d]pyrimidin-4-yl)oxy)benzonitrile] | 2025 | 46.6 ± 7.8 | 257 |  | 11.9 ± 5.57 |  |  |  |
| Cc1cc(C#N)cc(C)c1Oc1nc(NC2CCN(Cc3ccncc3)CC2)nc2c1SCC2 [Compound A4, 3,5-dimethyl-4-((2-((1-(pyridin-4-ylmethyl)piperidin-4-yl)amino)-6,7-dihydrothieno[3,2-d]pyrimidin-4-yl)oxy)benzonitrile] | ≥40104 | 46 ± 1.9 | ≥2305 | ≥ 106 |  |  |  |  |
| Cc1cc(C#N)cc(C)c1Oc1nc(NC2CCN(Cc3cccc(C(N)=O)c3)CC2)nc2c1COC2 [Compound B6, 3-((4-((4-(4-cyano-2,6-dimethylphenoxy)-5,7-dihydrofuro[3,4-d]pyrimidin-2-yl)amino)piperidin-1-yl)methyl)benzamide] |  | 1030 ± 51.1 |  | > 250 |  | 7.8 ± 3.4 |  |  |
| Cc1cc(C#N)cc(C)c1Oc1nc(NC2CCN(Cc3ccc(S(N)(=O)=O)cc3)CC2)nc2c1SCC2 [Compound A1, 4-((4-((4-(4-cyano-2,6-dimethylphenoxy)-6,7-dihydrothieno[3,2-d]pyrimidin-2-yl)amino)piperidin-1-yl)methyl)benzenesulfonamide] | 4584 | 28.8 ± 1.2 | 692 |  | 19.9 ± 10.1 |  |  |  |
| Cc1cc(C#N)cc(C)c1Oc1nc(NC2CCN(Cc3ccc(S(C)(=O)=O)cc3)CC2)nc2c1COC2 [Compound B3, 3,5-dimethyl-4-((2-((1-(4-(methylsulfonyl)benzyl)piperidin-4-yl)amino)-5,7-dihydrofuro[3,4-d]pyrimidin-4-yl)oxy)benzonitrile] | 14414 | 41.6 ± 4.9 | 648 | 27 ± 3.03 |  | 1.8 |  |  |
| Cc1cc(C#N)cc(C)c1Oc1nc(NC2CCN(Cc3ccc(S(N)(=O)=O)cc3)CC2)nc2c1COC2 [Compound B1, 4-((4-((4-(4-cyano-2,6-dimethylphenoxy)-5,7-dihydrofuro[3,4-d]pyrimidin-2-yl)amino)piperidin-1-yl)methyl)benzenesulfonamide] | 11167 | 38 ± 7.5 | 604 | 22.9 ± 2.89 |  | 2 ± 0.2 |  |  |
| Cc1cc(C#N)cc(C)c1Oc1nc(NC2CCN(Cc3ccncc3)CC2)nc2c1CCC2 [Compound C4, 3,5-dimethyl-4-((2-((1-(pyridin-4-ylmethyl)piperidin-4-yl)amino)-6,7-dihydro-5H-cyclopenta[d]pyrimidin-4-yl)oxy)benzonitrile] |  | 26800 | 9 | 205 ± 1.13 |  | 2 ± 0.5 | > 200 |  |
| Cc1cc(C#N)cc(C)c1Oc1nc(NC2CCN(Cc3ccc([N+](=O)[O-])cc3)CC2)nc2c1CCC2 [Compound C5, 3,5-dimethyl-4-((2-((1-(4-nitrobenzyl)piperidin-4-yl)amino)-6,7-dihydro-5H-cyclopenta[d]pyrimidin-4-yl)oxy)benzonitrile] | 1495 | 187 | 40 | 7.45 ± 0.93 |  | 4.9 ± 0.8 |  |  |
| Cc1cc(C#N)cc(C)c1Oc1nc(Nc2ccc(C#N)cc2)nc(N)c1Br [ETR, Etravirine, reference compound] |  |  |  | > 4.59 |  |  |  |  |
| Cc1ccnc2c1NC(=O)c1cccnc1N2C1CC1 [NVP, Nevirapine, reference compound] |  | > 9510 |  |  |  | 163 ± 41.2 |  | > 9.51 |
